# Experimental data taken from the NIST ThermoML archive (doi:10.1007/s10765-014-1828-5).
# Numbers after ± are expanded uncertainties.
# Conditions: 101.33 kPa, Liquid, Oscillating crucible method
smiles,measurement,setting,value
[Ba+2].[F-].[F-] [barium difluoride],viscosity,1620.2 K,3.56 ± 0.11 mPa·s
same,viscosity,1642.3 K,3.46 ± 0.11 mPa·s
same,viscosity,1657.3 K,3.309 ± 0.1 mPa·s
same,viscosity,1682.7 K,3.165 ± 0.098 mPa·s
same,viscosity,1697.5 K,2.995 ± 0.093 mPa·s
same,viscosity,1722.7 K,2.899 ± 0.091 mPa·s
same,viscosity,1723.2 K,2.856 ± 0.09 mPa·s
same,viscosity,1738.8 K,2.766 ± 0.086 mPa·s
same,viscosity,1763.4 K,2.665 ± 0.083 mPa·s
same,viscosity,1779.4 K,2.57 ± 0.08 mPa·s
same,viscosity,1802.5 K,2.461 ± 0.077 mPa·s
same,viscosity,1819.5 K,2.368 ± 0.074 mPa·s
same,viscosity,1842.3 K,2.3 ± 0.072 mPa·s
same,viscosity,1860.1 K,2.237 ± 0.071 mPa·s
same,viscosity,1880.4 K,2.172 ± 0.069 mPa·s
[F-].[F-].[Sr+2] [strontium fluoride],viscosity,1743.4 K,3.023 ± 0.093 mPa·s
same,viscosity,1749.8 K,2.953 ± 0.092 mPa·s
same,viscosity,1750.4 K,2.972 ± 0.092 mPa·s
same,viscosity,1762.4 K,2.915 ± 0.09 mPa·s
same,viscosity,1769 K,2.866 ± 0.089 mPa·s
same,viscosity,1780.9 K,2.804 ± 0.087 mPa·s
same,viscosity,1788.6 K,2.729 ± 0.085 mPa·s
same,viscosity,1796.9 K,2.698 ± 0.084 mPa·s
same,viscosity,1810.3 K,2.628 ± 0.082 mPa·s
same,viscosity,1817.9 K,2.584 ± 0.081 mPa·s
same,viscosity,1826.5 K,2.561 ± 0.08 mPa·s
same,viscosity,1833.2 K,2.512 ± 0.079 mPa·s
same,viscosity,1846.4 K,2.449 ± 0.077 mPa·s
same,viscosity,1852.2 K,2.401 ± 0.075 mPa·s
same,viscosity,1854.3 K,2.405 ± 0.075 mPa·s
same,viscosity,1864.6 K,2.374 ± 0.075 mPa·s
[Ca+2].[F-].[F-] [calcium fluoride],viscosity,1703.3 K,2.932 ± 0.098 mPa·s
same,viscosity,1703.6 K,2.878 ± 0.096 mPa·s
same,viscosity,1713.5 K,2.82 ± 0.088 mPa·s
same,viscosity,1722.7 K,2.77 ± 0.086 mPa·s
same,viscosity,1732.2 K,2.735 ± 0.085 mPa·s
same,viscosity,1742.2 K,2.657 ± 0.083 mPa·s
same,viscosity,1751.6 K,2.623 ± 0.082 mPa·s
same,viscosity,1760.6 K,2.562 ± 0.08 mPa·s
same,viscosity,1761.2 K,2.586 ± 0.081 mPa·s
same,viscosity,1763.4 K,2.571 ± 0.08 mPa·s
same,viscosity,1770.5 K,2.542 ± 0.079 mPa·s
same,viscosity,1780.9 K,2.476 ± 0.078 mPa·s
same,viscosity,1790.5 K,2.432 ± 0.076 mPa·s
same,viscosity,1800.8 K,2.408 ± 0.076 mPa·s
same,viscosity,1807.3 K,2.371 ± 0.074 mPa·s
same,viscosity,1820.5 K,2.34 ± 0.074 mPa·s
same,viscosity,1832.8 K,2.265 ± 0.071 mPa·s
same,viscosity,1839.9 K,2.268 ± 0.071 mPa·s
same,viscosity,1847.7 K,2.223 ± 0.07 mPa·s
same,viscosity,1858.7 K,2.185 ± 0.069 mPa·s
same,viscosity,1868.1 K,2.149 ± 0.068 mPa·s
[F-].[F-].[Mg+2] [magnesium difluoride],viscosity,1514.7 K,2.416 ± 0.076 mPa·s
same,viscosity,1534.7 K,2.25 ± 0.071 mPa·s
same,viscosity,1554.7 K,2.257 ± 0.071 mPa·s
same,viscosity,1574.1 K,2.09 ± 0.066 mPa·s
same,viscosity,1613.7 K,2.081 ± 0.066 mPa·s
same,viscosity,1633.2 K,2.036 ± 0.065 mPa·s
same,viscosity,1653.4 K,1.98 ± 0.063 mPa·s
same,viscosity,1673.9 K,1.895 ± 0.061 mPa·s
same,viscosity,1690.6 K,1.784 ± 0.057 mPa·s
same,viscosity,1716.7 K,1.763 ± 0.057 mPa·s
same,viscosity,1731 K,1.758 ± 0.057 mPa·s
same,viscosity,1751 K,1.68 ± 0.054 mPa·s
same,viscosity,1773 K,1.632 ± 0.053 mPa·s
same,viscosity,1792.8 K,1.588 ± 0.052 mPa·s
same,viscosity,1814.2 K,1.602 ± 0.052 mPa·s
same,viscosity,1831.8 K,1.552 ± 0.051 mPa·s
same,viscosity,1853.2 K,1.448 ± 0.048 mPa·s
